This note sets out measurements from patent publication US9249158B2, “Cytomegalovirus inhibitor compounds” (Boehringer Ingelheim International GmbH, priority 2012, dated 2016).

The target in one experiment is T1, purified recombinant HCMV polymerase (UL54) (Human cytomegalovirus, UniProt P08546).
T1 construct: made in house; host or cells: Sf21 insect cells (baculovirus)
T1 sequence (P08546 whole entry): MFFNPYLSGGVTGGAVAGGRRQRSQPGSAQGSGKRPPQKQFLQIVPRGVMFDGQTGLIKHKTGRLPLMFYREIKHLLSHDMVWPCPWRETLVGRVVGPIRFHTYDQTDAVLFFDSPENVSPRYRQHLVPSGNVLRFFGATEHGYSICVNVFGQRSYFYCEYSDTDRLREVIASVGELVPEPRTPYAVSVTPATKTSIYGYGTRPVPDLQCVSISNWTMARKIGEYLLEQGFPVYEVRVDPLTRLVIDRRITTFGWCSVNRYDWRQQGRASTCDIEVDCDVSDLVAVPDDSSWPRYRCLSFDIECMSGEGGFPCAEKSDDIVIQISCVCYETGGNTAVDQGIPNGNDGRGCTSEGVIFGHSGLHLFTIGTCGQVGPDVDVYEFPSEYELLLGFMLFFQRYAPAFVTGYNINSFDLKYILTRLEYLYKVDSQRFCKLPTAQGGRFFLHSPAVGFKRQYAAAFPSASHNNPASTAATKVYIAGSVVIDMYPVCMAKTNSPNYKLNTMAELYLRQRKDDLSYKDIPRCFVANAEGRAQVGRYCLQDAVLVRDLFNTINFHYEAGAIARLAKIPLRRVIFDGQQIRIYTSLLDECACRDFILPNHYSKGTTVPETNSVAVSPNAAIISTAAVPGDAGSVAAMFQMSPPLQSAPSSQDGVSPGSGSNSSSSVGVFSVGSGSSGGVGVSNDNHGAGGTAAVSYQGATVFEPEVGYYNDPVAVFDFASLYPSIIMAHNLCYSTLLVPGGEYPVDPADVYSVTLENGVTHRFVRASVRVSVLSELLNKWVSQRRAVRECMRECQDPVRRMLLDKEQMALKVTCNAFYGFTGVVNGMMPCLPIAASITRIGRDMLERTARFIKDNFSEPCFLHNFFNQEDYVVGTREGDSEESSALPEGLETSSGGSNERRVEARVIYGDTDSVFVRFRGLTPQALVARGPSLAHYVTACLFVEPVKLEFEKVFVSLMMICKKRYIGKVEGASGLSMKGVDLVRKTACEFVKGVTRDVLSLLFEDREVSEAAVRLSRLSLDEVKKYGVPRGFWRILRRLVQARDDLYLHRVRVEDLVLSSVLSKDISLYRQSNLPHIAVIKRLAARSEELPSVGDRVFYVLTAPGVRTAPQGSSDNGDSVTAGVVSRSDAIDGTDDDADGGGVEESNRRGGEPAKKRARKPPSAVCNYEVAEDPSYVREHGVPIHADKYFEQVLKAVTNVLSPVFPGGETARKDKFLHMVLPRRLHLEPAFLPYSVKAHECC
Nature of the experiment: HCMV Polymerase LANCE TR-FRET Assay. Format: biochemical.
Conditions: not given
The protocol:
The codon optimized UL54 HCMV polymerase gene for expression in insect cells is obtained from DNA 2.0 (Menlo Park, Calif.) and subcloned in 3′ of the Glutathione-S-transferase (GST) gene in a pFastBac-derived vector. Bacmids and baculoviruses are generated and expression performed in Sf21 insect cells cultured in SF900 II SFM media. Infection using the baculoviruses is performed using an MOI of 5-10 and the cells are harvested 48 h post-infection and frozen.
All purification procedures are performed at 4° C. The cell pellet from 1 L of culture (1×10^9 cells) is resuspended in 25 mL of 50 mM Tris pH 7.5, 1 mM TCEP, 0.1 mM EDTA, 150 mM NaCl, 10% Glycerol, 1 mM PMSF, 2 μg/mL Leupeptin, 2 μg/mL Antipain, 2 μg/mL Pepstatin A. The solution is homogenized using a Dounce tissue grinder. Following homogenization, the volume is increased to 40 mL followed by centrifugation at 750×g for 5 min to remove nuclei. The supernatant is then transferred and 3 cc of 50% slurry of glutathione-sepharose 4B resin is added. The mixture is incubated on a rotator for 1 h. The slurry is centrifuged at 500 g for 5 min. The supernatant is discarded and the pellet is resuspended in 10× volume of wash buffer (50 mM Tris pH 7.5, 1 mM TCEP, 0.1 mM EDTA, 150 mM NaCl, 10% Glycerol) and incubated for 5 min. The slurry is centrifuged at 500 g for 5 min and the supernatant is discarded. The wash step is performed 5 times. The elution is performed by adding 1.5 volume of elution buffer (50 mM Tris pH 7.5, 1 mM TCEP, 0.1 mM EDTA, 150 mM NaCl, 10% Glycerol, 20 mM glutathione) and incubating on a rotator for 15 min. The slurry is centrifuged at 500 g for 5 min and the supernatant is removed and kept. The elution step is performed four times. The supernatants are pooled and centrifuged at 500×g for 5 min to remove resin particles and frozen at −80° C.
The frozen protein is thawed and the NaCl concentration reduced to 37.5 mM by the addition of 3 volumes of DEAE buffer A (50 mM Tris pH 7.5, 1 mM TCEP, 0.1 mM EDTA, 10% Glycerol). The protein is loaded on a HiTrap DEAE-Sepharose μF column and eluted using a gradient with DEAE buffer B (50 mM Tris pH 7.5, 1 mM TCEP, 0.1 mM EDTA, 10% Glycerol, 1 M NaCl). UL54 eluted at 140 mM NaCl. The DEAE fractions are pooled, frozen and stored at −80° C. The protein concentration is determined by OD280 (A280=1.03 mg/mL).
This non-radiometric assay determines the enzymatic activity of purified recombinant HCMV polymerase (UL54) using a Digoxigenin-labeled oligonucleotide priming a heteropolymeric template. The enzymatic activity is determined by incorporating Biotin-dUTP in the nascent complementary strand. The signal is generated by Fluorescence Resonance Energy Transfer from the donor (Anti-Digoxigenin-Europium Chelate binding with the primer) to the acceptor Streptavidin-AlloPhycoCyanin (SA-APC) binding to the biotin of the labeled nucleotides incorporated in proximity.
Serial dilutions of the DMSO stock compound solution are performed using DMSO in columns 2-11 and 14-23. DMSO alone is present in columns 1, 12, 13 and 24. The plate is centrifuged at 200×g for 30 sec. 35 μL of compound dilution buffer (10 mM Hepes pH 7.5, 25 mM KCl, 5 mM MgCl2, 1 mM TCEP) is added to 5 μL of the diluted compound in DMSO to obtain 12.5% DMSO. 4 μL per well of the 12.5% DMSO serial dilution compound solution is added to the assay plate.
The assay conditions are the following: 10 mM HEPES pH 7.5, 25 mM KCl, 7.5 mM NaCl, 5 mM MgCl2, 0.2 mg BSA/mL, 1 mM TCEP, 1.5% glycerol, 5% DMSO, 235 nM dATP, 350 nM dCTP, 350 nM dGTP, 235 nM dTTP, 12 nM biotin-16-dUTP, 23.5 nM Dig-primer/template, 2 nM GST-UL54. The assay volume is 10 μL. […]
On the technique in general: In TR-FRET formats the signal depends on donor and acceptor labels being close together.
Broadly, the IC50 is the concentration that gives 50% inhibition. For `Cc1cc(Cl)ccc1CNC(=O)c1cc2c3c(cnc2n(CC(=O)N2CC(C)(F)C2)c1=O)nc(C)n3C` [Compound 5038], the IC50 came out at 140 nM.

Staying with this experiment, now noted: 2 nM GST-UL54, 37° C. for 30 min, 5% DMSO; read-out: Example 34 IC50.
In the case of `Cc1nc2cnc3c(cc(C(=O)NCc4ccc(Cl)cc4)c(=O)n3CC(=O)N3CC(C)(F)C3)c2n1C` [Compound 1002], the IC50 turned out to be 38 nM.

Turning to `CCn1cnc2cnc3c(cc(C(=O)NCc4ccc(Cl)cc4)c(=O)n3CC(=O)N3CC(C)(F)C3)c21` [Compound 1004], the IC50 was determined as 26 nM.

As to `Cc1nc2cnc3c(cc(C(=O)NCc4ccc(Cl)cc4)c(=O)n3CC(=O)N3CC(F)(CF)C3)c2n1C` [Compound 1007], the IC50 was found to be 48 nM.

`Cn1cc(-c2nc3cnc4c(cc(C(=O)NCc5ccc(Cl)cc5)c(=O)n4CC(=O)N4CC(C)(F)C4)c3n2C)cn1` [Compound 1016]: the IC50 amounted to 74 nM.

In the case of `CC1(F)CN(C(=O)Cn2c(=O)c(C(=O)NCc3ccc(Cl)cc3)cc3c4c(cnc32)ncn4CCO)C1` [Compound 1024], the concentration for half-maximal inhibition (IC50) stood at 29 nM.

As to `COCc1nc2cnc3c(cc(C(=O)NCc4ccc(Cl)cc4)c(=O)n3CC(=O)N3CC(C)(F)C3)c2n1C` [Compound 1031], the IC50 was 58 nM.

As for `Cn1c(N2CCCC2=O)nc2cnc3c(cc(C(=O)NCc4ccc(Cl)cc4)c(=O)n3CC(=O)N3CC(C)(F)C3)c21` [Compound 1038], the IC50 was 78 nM.

As for `Cn1c(N2CCOCC2)nc2cnc3c(cc(C(=O)NCc4ccc(Cl)cc4)c(=O)n3CC(=O)N3CC(C)(F)C3)c21` [Compound 1056], the IC50 was 110 nM.

As to `Cn1c(-n2ccnc2)nc2cnc3c(cc(C(=O)NCc4ccc(Cl)cc4)c(=O)n3CC(=O)N3CC(C)(F)C3)c21` [Compound 1061], the IC50 turned out to be 60 nM.

Turning to `Cc1nc2cnc3c(cc(C(=O)NCc4ccc(Cl)cc4)c(=O)n3CC(=O)N3CC(F)(CO)C3)c2n1C` [Compound 1065], the IC50 turned out to be 35 nM.

In the case of `CN(C)Cc1nc2cnc3c(cc(C(=O)NCc4ccc(Cl)cc4)c(=O)n3CC(=O)N3CC(C)(C)C3)c2n1C` [Compound 1070], the IC50 was determined as 61 nM.

Turning to `Cc1nc2cnc3c(cc(C(=O)NCc4ccc(Cl)cc4)c(=O)n3CC(=O)N3CC4(C3)NCC4(F)F)c2n1C` [Compound 1072], the IC50 was found to be 260 nM.

Turning to `Cc1nc2cnc3c(cc(C(=O)NCc4ccc(Cl)cc4)c(=O)n3CC(=O)N(C)CC(C)(C)CO)c2n1C` [Compound 1073], the IC50 was found to be 42 nM.

Take `COc1nc2cnc3c(cc(C(=O)NCc4ccc(Cl)cc4)c(=O)n3CC(=O)N3CC(C)(C#N)C3)c2n1C` [Compound 1074]: the IC50 stood at 75 nM.

Regarding `CN(C)c1nc2c3cc(C(=O)NCc4ccc(Cl)cc4)c(=O)n(CC(=O)N4CC(C)(F)C4)c3ncc2n1C` [Compound 2017], the concentration for half-maximal inhibition (IC50) stood at 210 nM.

For the compound `Cc1nc2cnc3c(cc(C(=O)NCc4ccc(C#N)cc4)c(=O)n3CC(=O)N3CC(C)(F)C3)c2n1C` [Compound 3001], the IC50 was determined as 140 nM.

For the compound `Cc1nc2c3cc(C(=O)NCc4ccc(C#N)cc4)c(=O)n(CC(=O)N4CC(C)C4)c3ncc2n1C` [Compound 4003], the IC50 worked out at 93 nM.

For the compound `CC1(F)CN(C(=O)Cn2c(=O)c(C(=O)NCc3ccc(Cl)cc3)cc3c4c(cnc32)nc2n4CCOC2)C1` [Compound 5002], the IC50 is 69 nM.

Regarding `CC1(F)CN(C(=O)Cn2c(=O)c(C(=O)NCc3ccc(Cl)cc3)cc3c4nc5n(c4cnc32)CCC5)C1` [Compound 5004], the IC50 was determined as 77 nM.

As to `Cn1c(=O)n(C)c2c3cc(C(=O)NCc4ccc(Cl)cc4)c(=O)n(CC(=O)N4CC(C)(F)C4)c3ncc21` [Compound 5006], the IC50 came to 89 nM.

For the compound `Cc1cn(C)c2c1cnc1c2cc(C(=O)NCc2ccc(Cl)cc2)c(=O)n1CC(=O)N1CC(C)C1` [Compound 5007], the IC50 came out at 65 nM.

On to `CC1(C)CN(C(=O)Cn2c(=O)c(C(=O)NCc3ccc(Cl)cc3)cc3c4c(cnc32)-c2ccccc2CO4)C1` [Compound 5012], for which the IC50 was 160 nM.

For `Cn1cc(N2CCOc3c2cnc2c3cc(C(=O)NCc3ccc(Cl)cc3)c(=O)n2CC(=O)N2CC(C)(F)C2)cn1` [Compound 5015], the IC50 came out at 200 nM.

Take `CC1(C)CN(C(=O)Cn2c(=O)c(C(=O)NCc3ccc(Cl)cc3)cc3c4c(cnc32)NCCN4)C1` [Compound 5021]: the IC50 was determined as 330 nM.

On to `CC1(C)CN(C(=O)Cn2c(=O)c(C(=O)NCc3ccc(Cl)cc3)cc3c4c(cnc32)NC(C)(C)CO4)C1` [Compound 5022], for which the IC50 turned out to be 460 nM.

Turning to `COc1nc2c(cc(C(=O)NCc3ccc(Cl)cc3)c(=O)n2CC(=O)N2CC(C)(F)C2)c2c1nc(C)n2C` [Compound 5035], the IC50 came to 240 nM.

Regarding `Cc1nc2cnc3c(cc(C(=O)NCc4ccc(Cl)cc4)c(=O)n3CC(=O)N3CC(C)(F)C3)c2nc1C` [Compound 5037], the concentration for half-maximal inhibition (IC50) came out at 440 nM.

As to `Cc1nc2cnc3c(cc(C(=O)NCc4ccc(Cl)c(O)c4)c(=O)n3CC(=O)N3CC(C)(F)C3)c2n1C` [Compound 5046], the IC50 was determined as 190 nM.

Take `COc1cc(CNC(=O)c2cc3c4c(cnc3n(CC(=O)N3CC(C)(F)C3)c2=O)nc(C)n4C)ccc1Cl` [Compound 5048]: the IC50 amounted to 170 nM.
